Laboratory results taken from US20110263650A1 (priority 2007, published 2011).
In brackets after ≈: the same amount, converted by molar mass. Where two headings read alike, the source gives them in different places.

Assays:
[1] = system: L929 mouse fibroblasts (DSMZ ACC 2); experiment: Growth inhibition assay (MTT), L929; details: for IC50: Mus musculus; for Cytotoxicity / activity in words: Tables 1 and 2, cell line not given
[2] = system: KB-3-1 human cervix carcinoma (DSMZ ACC 158); experiment: Growth inhibition assay (MTT), KB-3-1; assay type: cell-based; details: KB 3-1, 120 h, read-out: IC50 KB-3-1
[3] = system: SW-480 human colon adenocarcinoma (ATCC CCL-228); experiment: Growth inhibition assay (MTT), SW-480; assay type: cell-based; details: for IC50: SW480, 120 h, read-out: IC50 SW-480; for Activity in SW-480 compared with tubulysin D, in words: colon cancer cell line SW-480
[4] = L929, 120 h, read-out: IC50 L929

Row | SMILES | IC50 [1, 4] | Fold less active than tubulysin D ([1]; cytotoxicity relative to tubulysin D) | IC50 ([2]; Homo sapiens) | IC50 ([3]; Homo sapiens) | Activity in SW-480 compared with tubulysin D, in words [3] | IC50 ([1]; L929, read-out: Cytotoxicity stated in text) | IC50 ([2]; human cervix carcinoma, MTT after 5 days) | IC50 ([3]; human colon adenocarcinoma, MTT after 5 days) | Cytotoxicity / activity in words [1]
1 | CC[C@H](C)[C@H](NC(=O)[C@H]1CCCCN1C)C(=O)N(C)[C@H](C[C@@H](OC(C)=O)c1nc(C(=O)N[C@@H](Cc2ccccc2)C[C@H](C)C(=O)O)cs1)C(C)C (stereo in doubt) [Analogue 10, 4-({2-[1-Acetoxy-4-methyl-3-(methyl-{3-methyl-2-[(1-methylpiperidine-2-carbonyl)-amino]-pentanoyl}-amino)-pentyl]-thiazole-4-carbonyl}-amino)-2-methyl-5-phenyl-pentanoic acid] | 0.23 ng/mL (≈ 0.316 nM) | 4 fold | 0.13 ng/mL (≈ 0.179 nM) | 0.016 ng/mL (≈ 0.022 nM) | more active than tubulysin D |  |  |  | 
2 | CC[C@H](C)[C@H](NC(=O)[C@H]1CCCCN1C)C(=O)N(C)[C@H](C[C@@H](OC(C)=O)c1nc(C(=O)NC)cs1)C(C)C (stereo in doubt) [Analogue 11, acetic acid 4-methyl-1-(4-methylcarbamoyl-thiazol-2-yl)-3-(methyl-{3-methyl-2-[(1-methyl-piperidine-2-carbonyl)-amino]-pentanoyl}-amino)-pentyl ester] | 1.7 ng/mL (≈ 3.08 nM) |  | 1.2 ng/mL (≈ 2.17 nM) | 0.5 ng/mL (≈ 0.906 nM) |  | 2 ng/mL (≈ 3.62 nM) |  |  | 
3 | CC[C@H](C)[C@H](NC(=O)[C@H]1CCCCN1C)C(=O)N(COC(=O)CC(C)C)[C@H](C[C@@H](OC(C)=O)c1nc(C(=O)N[C@@H](Cc2ccccc2)C[C@H](C)C(=O)O)cs1)C(C)C [Analogue 1, Tubulysin D, reference compound] | 0.056 ng/mL (≈ 0.0676 nM) |  |  |  |  |  | 0.07 ng/mL (≈ 0.0845 nM) | 0.022 ng/mL (≈ 0.0266 nM) | 
4 | CC[C@H](C)[C@H](NC(=O)[C@H]1CCCCN1C)C(=O)N(COC(=O)CC(C)C)[C@H](C[C@@H](OC(C)=O)c1nc(C(=O)NCCc2ccccc2)cs1)C(C)C [Analogue 2, 3-methyl-butyric acid ({1-[2-acetoxy-2-(4-phenethylcarbamoylthiazol-2-yl)-ethyl]-2-methyl-propyl}-{3-methyl-2-[(1-methyl-piperidine-2-carbonyl)-amino]-pentanoyl}-amino)-methyl ester] | 0.24 ng/mL (≈ 0.323 nM) |  | 0.25 ng/mL (≈ 0.337 nM) | 0.3 ng/mL (≈ 0.404 nM) |  |  |  |  | 
5 | CC[C@H](C)[C@H](NC(=O)[C@H]1CCCCN1C)C(=O)N(COC(=O)CC(C)C)[C@H](C[C@@H](OC(C)=O)c1nc(C(=O)NCCCC(=O)O)cs1)C(C)C [Analogue 3, 3-Methyl-butyric acid ((1-{2-acetoxy-2-[4-(3-carboxy-propylcarbamoyl)-thiazol-2-yl]-ethyl)-2-methyl-propyl)-{3-methyl-2-[(1-methyl-piperidine-2-carbonyl)-amino]-pentanoyl}-amino)-methyl ester] | 3.5 ng/mL (≈ 4.83 nM) |  | 1.8 ng/mL (≈ 2.49 nM) | 0.91 ng/mL (≈ 1.26 nM) |  |  |  |  | 
6 | CC[C@H](C)[C@H](NC(=O)[C@H]1CCCCN1C)C(=O)N(COC(=O)CC(C)C)[C@H](C[C@@H](OC(C)=O)c1nc(C(=O)NC)cs1)C(C)C [Analogue 4, 3-methyl-butyric acid ({1-[2-acetoxy-2-(4-methylcarbamoyl-thiazol-2-yl) -ethyl]-2-methyl-propyl}-{3-methyl-2-[(1-methyl-piperidine-2-carbonyl)-amino]pentanoyl}-amino)-methyl ester] | 0.3 ng/mL (≈ 0.46 nM) |  | 0.22 ng/mL (≈ 0.337 nM) | 0.35 ng/mL (≈ 0.537 nM) |  |  |  |  | maintained good activity
7 | CC[C@H](C)[C@H](NC(=O)[C@H]1CCCCN1C)C(=O)N(COC(=O)CC(C)C)[C@H](C[C@@H](OC(C)=O)c1nc(C(=O)O)cs1)C(C)C [Analogue 5, 2-[1-acetoxy-4-methyl-3-((3-methyl-butyryloxymethyl)-{3-methyl-2-[(1-methyl-piperidine-2-carbonyl)-amino]-pentanoyl}-amino)-pentyl]-thiazole-4-carboxylic acid] | 2.2 ng/mL (≈ 3.44 nM) |  | 1.5 ng/mL (≈ 2.35 nM) | 0.35 ng/mL (≈ 0.548 nM) |  |  |  |  | maintained good activity
8 | CC[C@H](C)[C@H](NC(=O)CN(C)C)C(=O)N(COC(=O)CC(C)C)[C@H](C[C@@H](OC(C)=O)c1nc(C(=O)N[C@@H](Cc2ccccc2)C[C@H](C)C(=O)O)cs1)C(C)C [Analogue 6, 4-[(2-{1-acetoxy-3-[[2-(2-dimethylamino-cetylamino)-3-methylpentanoyl]-(3-methyl-butyryloxymethyl)-amino]-4-methyl-pentyl}-thiazole-4-carbonyl)-amino]-2-methyl-5-phenyl-pentanoic acid] | 0.04 ng/mL (≈ 0.0508 nM) |  | 0.029 ng/mL (≈ 0.0368 nM) | 0.01 ng/mL (≈ 0.0127 nM) | more active than tubulysin D |  |  |  | essentially equipotent with tubulysin D
9 | CC[C@H](C)[C@H](NC(C)=O)C(=O)N(COC(=O)CC(C)C)[C@H](C[C@@H](OC(C)=O)c1nc(C(=O)N[C@@H](Cc2ccccc2)C[C@H](C)C(=O)O)cs1)C(C)C [Analogue 7, 4-[(2-{1-acetoxy-3-[(2-acetylamino-3-methyl-pentanoyl)-(3-methyl-butyryloxymethyl)-amino]-4-methyl-pentyl}-thiazole-4-carbonyl)-amino]-2-methyl-5-phenyl-pentanoic acid] | 120 ng/mL (≈ 161 nM) |  | 80 ng/mL (≈ 107 nM) | 15 ng/mL (≈ 20.1 nM) |  |  |  |  | drastic decrease in activity
10 | CC[C@H](C)[C@H](N=[N+]=[N-])C(=O)N(COC(=O)CC(C)C)[C@H](C[C@@H](OC(C)=O)c1nc(C(=O)N[C@@H](Cc2ccccc2)C[C@H](C)C(=O)O)cs1)C(C)C [Analogue 8, 4-[(2-{1-acetoxy-3-[(2-azido-3-metlzyl-pentanoyl)-(3-methylbutyryloxymethyl)-amino]-4-methyl-pentyl}-thiazole-4-carbonyl)-amino]-2-methyl-5-phenyl-pentanoic acid] | 45 ng/mL (≈ 61.7 nM) |  | 40 ng/mL (≈ 54.9 nM) | 8.8 ng/mL (≈ 12.1 nM) |  |  |  |  | drastic decrease in activity
